Laboratory results: patent US20150073021A1 (priority 2013, published 2015)

Columns and labels:
Bacillus anthracis = details: in vivo
bovine serum albumin = bovine serum albumin (Bos taurus, UniProt P02769); details: cited from earlier work
[1] = test system: rats expressing pathologically excessive levels of MMPs; details: rat, in vivo; cited from earlier work
cell and tissue culture = details: cited from earlier work
humans = details: in vivo; cited from earlier work

Sequence of bovine serum albumin (P02769 25-607): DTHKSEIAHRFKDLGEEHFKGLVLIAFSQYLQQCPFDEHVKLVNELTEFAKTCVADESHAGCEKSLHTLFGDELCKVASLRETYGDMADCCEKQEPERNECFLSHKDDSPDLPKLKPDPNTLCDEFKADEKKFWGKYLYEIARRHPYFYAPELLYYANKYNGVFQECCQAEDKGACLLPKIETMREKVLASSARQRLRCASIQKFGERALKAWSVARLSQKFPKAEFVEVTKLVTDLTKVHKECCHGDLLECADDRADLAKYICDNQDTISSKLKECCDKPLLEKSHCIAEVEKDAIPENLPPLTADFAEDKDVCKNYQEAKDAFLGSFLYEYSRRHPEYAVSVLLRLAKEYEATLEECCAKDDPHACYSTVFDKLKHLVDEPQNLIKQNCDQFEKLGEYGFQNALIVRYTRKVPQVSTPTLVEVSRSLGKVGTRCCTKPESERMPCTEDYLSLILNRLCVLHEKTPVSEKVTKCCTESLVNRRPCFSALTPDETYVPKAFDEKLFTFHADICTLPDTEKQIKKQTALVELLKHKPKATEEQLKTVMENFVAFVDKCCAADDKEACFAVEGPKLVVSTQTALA

For `O=C(/C=C/c1ccc(O)cc1)C(C(=O)/C=C/c1ccc(O)cc1)C(=O)Nc1ccccc1` [CMC2.24], the “treatment of subject infected with Bacillus anthracis” value (Bacillus anthracis) is given as “effective to treat the subject”, the “binding to bovine serum albumin” value (bovine serum albumin) is given as “bind fairly strongly” and the “toxicity after oral gavage” value [1] is given as “no evidence of toxicity”. The “toxicity compared to the parent compound curcumin” value (cell and tissue culture) was “even less toxicity”.

In the case of `COc1cc(/C=C/C(=O)CC(=O)/C=C/c2ccc(O)c(OC)c2)ccc1O` [curcumin, reference compound], the “binding to bovine serum albumin” value (bovine serum albumin) is listed as “bind fairly strongly”, the “toxicity after oral gavage” value [1] is listed as “no evidence of toxicity” and the toxicity in humans (humans) is listed as “virtually no toxicity”.
